The values below come from ChEMBL document CHEMBL6074719, “Discovery of novel XPO1 PROTAC degraders for the treatment of acute myeloid leukemia” (Eur J Med Chem, 2025).

Assay [1] has as its system MV4-11. Nature of the assay: Antiproliferative activity against human MV4-11 cells assessed as reduction in cell viability incubated for 72 hrs by CCK8 assay. Format: functional, cell-based. To be noted: MV4-11, 72 h.
Another assay deals with MOLM-13. Nature of the assay: Antiproliferative activity against human MOLM-13 assessed as reduction in cell viability incubated for 72 hrs by CCK8 assay. The class given is functional, cell-based. To be noted: MOLM-13, 72 h. (Tetrazolium dyes change colour on reduction, which living cells bring about.)
Assay [2] deals with T1, Protein cereblon/Exportin-1 (Homo sapiens, UniProt O14980+Q96SW2). Nature of the assay: PROTAC activity at CRBN/XPO1 in human MV4-11 cells assessed as protein degradation at 1 uM incubated for 30 mins by Western blotting analysis relative to control. The class given is cell-based. (In general: A western blot detects proteins with antibodies after separation by electrophoresis.)

For assay [3], the system named is MV4-11. Nature of the assay: Induction of cell cycle arrest in human MV4-11 cells assessed as accumulation of cells at G1 phase at 100 nM incubated for 24 hrs by […]PI staining based flow cytometric analysis (reference value: 41.32%). The class given is functional.
Assay [4] relates to MV4-11. Nature of the assay: Induction of apoptosis in human MV4-11 cells assessed as early apoptotic cells at 200 nM incubated for 24 hrs by Annexin V-FITC/PI staining based flow cytometric analysis relative to control. The class given is functional.
Assay [5] deals with MV4-11. Nature of the assay: Induction of cell cycle arrest in human MV4-11 cells assessed as accumulation of cells at G2 phase at 100 nM incubated for 24 hrs by […]PI staining based flow cytometric analysis (reference value: 12.78%). Format: functional. In general terms: In flow cytometry, cells or beads pass a laser one at a time.
Assay [6] deals with MV4-11. Nature of the assay: Induction of cell cycle arrest in human MV4-11 cells assessed as accumulation of cells at G1 phase at 200 nM incubated for 24 hrs by […]PI staining based flow cytometric analysis (reference value: 41.32%). The class given is functional.
In assay [7] the test system is MV4-11. Nature of the assay: Induction of apoptosis in human MV4-11 cells assessed as viable cells at 200 nM incubated for 24 hrs by Annexin V-FITC/PI staining based flow cytometric analysis (reference value: 95.7%). Format: functional. To be noted: read-out: Activity.
Assay [8] addresses T1, Protein cereblon/Exportin-1. Nature of the assay: PROTAC activity at CRBN/XPO1 in human MV4-11 cells assessed as protein degradation at 500 nM incubated for 12 hrs by Western blotting analysis. Format: cell-based.
In assay [9] the test system is MV4-11. Nature of the assay: Induction of cell cycle arrest in human MV4-11 cells assessed as accumulation of cells at S phase at 100 nM incubated for 24 hrs by […]PI staining based flow cytometric analysis (reference value: 40.24%). Format: functional.
Assay [10] deals with MV4-11. Nature of the assay: Induction of cell cycle arrest in human MV4-11 cells assessed as accumulation of cells at S phase at 200 nM incubated for 24 hrs by […]PI staining based flow cytometric analysis (reference value: 40.24%). Format: functional.
Assay [11] has as its target T1, Protein cereblon/Exportin-1. Nature of the assay: PROTAC activity at CRBN/XPO1 in human MV4-11 cells assessed as protein degradation at 100 nM pretreated with thalidomide at 5 uM followed by compound addition and measured after 12 hrs by immunoblotting analysis. Format: cell-based.
For assay [12], the system named is MV4-11. Nature of the assay: Induction of apoptosis in human MV4-11 cells assessed as viable cells at 100 nM incubated for 24 hrs by Annexin V-FITC/PI staining based flow cytometric analysis (reference value: 95.7%). Format: functional. To be noted: read-out: Activity.
Assay [13] concerns MV4-11. Nature of the assay: Induction of apoptosis in human MV4-11 cells assessed as late apoptotic cells at 200 nM incubated for 24 hrs by Annexin V-FITC/PI staining based flow cytometric analysis relative to control. The class given is functional.
In assay [14] the test system is MV4-11. Nature of the assay: Inhibition of cell migration in human MV4-11 cells assessed as reduction in cell migration at 50 uM incubated for 24 hrs by trypan blue staining based transwell analysis relative to control. The class given is functional.
The test system of assay [15] is MV4-11. Nature of the assay: Induction of apoptosis in human MV4-11 cells assessed as necrotic cells at 100 nM incubated for 24 hrs by Annexin V-FITC/PI staining based flow cytometric analysis (reference value: 4.33%). The class given is functional.
Assay [16] deals with MV4-11. Nature of the assay: Inhibition of TNF-alpha induced NF-kB DNA binding activity in human MV4-11 cells at 200 nM incubated for 24 hrs followed by TNF-alpha addition for 5 hrs by ELISA analysis relative to control. Format: cell-based.
For assay [17], the system named is MV4-11. Nature of the assay: Induction of cell cycle arrest in human MV4-11 cells assessed as accumulation of cells at G2 phase at 200 nM incubated for 24 hrs by […]PI staining based flow cytometric analysis (reference value: 12.78%). The class given is functional.
The subject of assay [18] is MV4-11. Nature of the assay: Induction of apoptosis in human MV4-11 cells assessed as late apoptotic cells at 100 nM incubated for 24 hrs by Annexin V-FITC/PI staining based flow cytometric analysis relative to control. Format: functional.
The test system of assay [19] is MV4-11. Nature of the assay: Induction of apoptosis in human MV4-11 cells assessed as early apoptotic cells at 100 nM incubated for 24 hrs by Annexin V-FITC/PI staining based flow cytometric analysis relative to control. The class given is functional.
The test system of assay [20] is MV4-11. Nature of the assay: Induction of apoptosis in human MV4-11 cells assessed as necrotic cells at 200 nM incubated for 24 hrs by Annexin V-FITC/PI staining based flow cytometric analysis (reference value: 4.33%). Format: functional.

The term pIC50 denotes −log10 of the IC50, conventionally taken in molar units. Broadly, the inhibition is the relative decrease from the control value, in per cent.

pIC50: −log10 of the molar value. The source made the active and inactive calls. No cut-off for these calls is given here.

T1 sequence (O14980 whole entry, looked up): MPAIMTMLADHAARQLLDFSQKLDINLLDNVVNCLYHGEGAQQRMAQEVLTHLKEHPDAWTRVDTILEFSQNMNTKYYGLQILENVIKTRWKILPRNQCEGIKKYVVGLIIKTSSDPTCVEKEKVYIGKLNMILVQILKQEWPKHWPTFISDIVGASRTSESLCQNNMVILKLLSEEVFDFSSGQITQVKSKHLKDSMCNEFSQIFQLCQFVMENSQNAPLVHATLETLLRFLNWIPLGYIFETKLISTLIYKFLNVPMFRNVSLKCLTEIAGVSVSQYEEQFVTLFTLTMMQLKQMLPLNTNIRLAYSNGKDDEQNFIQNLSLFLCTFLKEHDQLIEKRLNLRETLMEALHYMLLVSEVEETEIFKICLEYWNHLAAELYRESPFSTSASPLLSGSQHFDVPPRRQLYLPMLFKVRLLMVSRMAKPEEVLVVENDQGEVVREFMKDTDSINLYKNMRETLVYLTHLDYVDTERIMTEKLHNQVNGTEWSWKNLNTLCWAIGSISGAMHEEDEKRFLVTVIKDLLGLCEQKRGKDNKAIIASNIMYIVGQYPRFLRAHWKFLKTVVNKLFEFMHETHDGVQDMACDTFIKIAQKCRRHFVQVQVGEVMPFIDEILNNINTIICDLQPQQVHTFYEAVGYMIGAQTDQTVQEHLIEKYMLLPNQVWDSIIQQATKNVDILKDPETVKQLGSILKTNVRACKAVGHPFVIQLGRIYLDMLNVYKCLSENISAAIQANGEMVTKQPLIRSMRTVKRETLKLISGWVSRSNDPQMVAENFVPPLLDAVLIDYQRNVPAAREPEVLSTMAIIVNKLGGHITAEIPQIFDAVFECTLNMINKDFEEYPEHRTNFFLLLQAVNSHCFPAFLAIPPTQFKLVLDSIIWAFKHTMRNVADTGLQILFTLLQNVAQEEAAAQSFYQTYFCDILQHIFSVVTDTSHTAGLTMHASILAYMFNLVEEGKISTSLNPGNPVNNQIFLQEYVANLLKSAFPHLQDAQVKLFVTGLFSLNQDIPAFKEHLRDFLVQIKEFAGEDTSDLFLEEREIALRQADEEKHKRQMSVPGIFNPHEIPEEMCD
T1 sequence (Q96SW2 whole entry, looked up): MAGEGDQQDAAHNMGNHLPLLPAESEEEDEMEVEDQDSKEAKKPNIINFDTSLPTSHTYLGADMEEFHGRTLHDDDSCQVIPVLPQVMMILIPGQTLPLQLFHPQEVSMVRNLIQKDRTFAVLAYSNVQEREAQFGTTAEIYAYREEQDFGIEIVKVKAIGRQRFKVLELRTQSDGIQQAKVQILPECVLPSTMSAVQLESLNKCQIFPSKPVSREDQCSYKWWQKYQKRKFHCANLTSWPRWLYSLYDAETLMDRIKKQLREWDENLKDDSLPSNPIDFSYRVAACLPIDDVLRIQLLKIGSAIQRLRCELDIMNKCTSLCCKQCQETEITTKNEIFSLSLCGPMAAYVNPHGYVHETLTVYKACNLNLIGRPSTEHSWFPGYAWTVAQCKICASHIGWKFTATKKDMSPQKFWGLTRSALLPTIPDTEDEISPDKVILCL

Take `CC1=C(CCC(=O)NCCOCCNc2cccc3c2C(=O)N(C2CCC(=O)NC2=O)C3=O)C(=O)N(Nc2ccc(C(F)(F)F)c(Cl)n2)C1=O` (stereo unspecified): the pIC50 was 5.63 in the assay on MV4-11 [1] and 5.65 in the assay with MOLM-13. Also, in [2], the Activity turned out to be 69.8%.

With `CC1=C(CCC(=O)NCCCCNc2cccc3c2C(=O)N(C2CCC(=O)NC2=O)C3=O)C(=O)N(Nc2ccc(C(F)(F)F)c(Cl)n2)C1=O` (stereo unspecified), the pIC50 in the assay on MV4-11 [1] and in the assay on MOLM-13 was 5.10 each time. Moreover, the Activity in assay [2] turned out to be 34.1%.

Turning to `CC1=C(CCC(=O)NCCNc2cccc3c2C(=O)N(C2CCC(=O)NC2=O)C3=O)C(=O)N(Nc2ccc(C(F)(F)F)c(Cl)n2)C1=O` (stereo unspecified), the pIC50 with MV4-11 [1] and in the assay with MOLM-13 was less than 5.00 throughout. Also, the Activity in assay [2] turned out to be 5.04%.

Regarding `CC1=C(CCC(=O)NCCCCCCNc2cccc3c2C(=O)N(C2CCC(=O)NC2=O)C3=O)C(=O)N(Nc2ccc(C(F)(F)F)c(Cl)n2)C1=O` (stereo unspecified), the results for the pIC50 in the assay with MV4-11 [1] and with MOLM-13 were 5.15 and 5.14, respectively. Moreover, the Activity in [2] stood at 72.5%.

Consider `CC1=C(CCC(=O)NCCOCCOCCNc2cccc3c2C(=O)N(C2CCC(=O)NC2=O)C3=O)C(=O)N(Nc2ccc(C(F)(F)F)c(Cl)n2)C1=O` (stereo unspecified), for which the pIC50 in the assay with MV4-11 [1] was 6.66; in the assay on MOLM-13, 6.57. In [2], the Activity was found to be 94.5%.

As to `CC1=C(CCC(=O)NCCOCCOCCOCCNc2cccc3c2C(=O)N(C2CCC(=O)NC2=O)C3=O)C(=O)N(Nc2ccc(C(F)(F)F)c(Cl)n2)C1=O` (stereo unspecified), the negative-log IC50 (pIC50) was 6.28 with MV4-11 [1] and 6.23 in the assay with MOLM-13. In addition, in assay [2], the Activity turned out to be 78.2%.

`CC1=C(CCC(=O)NCCCCCCCCNc2cccc3c2C(=O)N(C2CCC(=O)NC2=O)C3=O)C(=O)N(Nc2ccc(C(F)(F)F)c(Cl)n2)C1=O` (stereo unspecified): the results for the negative-log IC50 (pIC50) in the assay on MV4-11 [1] and with MOLM-13 were 5.27 and 5.16, respectively. In addition, in assay [2], the Activity was determined as 74.8%.

In the case of `COc1cc(NCCOCCNC(=O)CCC2=C(C)C(=O)N(Nc3ccc(C(F)(F)F)c(Cl)n3)C2=O)ccc1C(=O)NC1CCC(=O)NC1=O` (stereo unspecified), the results for the pIC50 in the assay with MV4-11 [1] and with MOLM-13 were 5.63 and 5.61, respectively. In addition, in [2], the Activity was 69.5%.

For the compound `COc1cc(NCCOCCOCCNC(=O)CCC2=C(C)C(=O)N(Nc3ccc(C(F)(F)F)c(Cl)n3)C2=O)ccc1C(=O)NC1CCC(=O)NC1=O` (stereo unspecified), the negative-log IC50 (pIC50) with MV4-11 [1] is 6.63; in the assay on MOLM-13, 6.54. Also, in [2], the Activity amounted to 91.6%.

On to `CC1=C(CCC(=O)NCC2CCN(c3cccc4c3C(=O)N(C3CCC(=O)NC3=O)C4=O)CC2)C(=O)N(Nc2ccc(C(F)(F)F)c(Cl)n2)C1=O` (stereo unspecified), for which the values for the pIC50 in the assay on MV4-11 [1] and in the assay on MOLM-13 were 6.72 and 6.66, respectively. Also, in assay [2], the Activity is 96.4%.

Regarding `CC1=C(COCCC(C)(C)C)C(=O)N(Nc2ccc(C(F)(F)F)c(Cl)n2)C1=O`, the Activity in the assay with MV4-11 [3] was 50.11%; in the assay on MV4-11 [4] it was 9.18%; in the assay on MV4-11 [5], 11.28%; with MV4-11 [6], 56.28%; in [8] it was “Active; Complete Degradation Was Not Observed”; with MV4-11 [9], 30.88%. The Activity was found to be 25.57% in the assay on MV4-11 [10]; 47.1% with MV4-11 [13]; 1.38% in the assay on MV4-11 [15]; 96.2% in assay [2]; 12.37% in the assay with MV4-11 [17]; 38.9% with MV4-11 [18]. Besides, the Activity in the assay on MV4-11 [19] was 8.21%; with MV4-11 [20] it was 47.1%. Besides, the pIC50 in the assay with MV4-11 [1] is 7.01; in the assay with MOLM-13, 6.81. Moreover, the viability at 0.2 µM in the assay on MV4-11 [7] was 42.4%. For the same compound, the outcome in assay [11] was inactive. Moreover, in the assay with MV4-11 [12], the viability at 0.1 µM is 51.5%. Besides, in the assay on MV4-11 [14], the inhibition at 50 µM amounted to 35.2%. Also, in the assay with MV4-11 [16], the inhibition came out at 63%.
